Assay [1] deals with Primary bovine adrenal cortex capillary endothelial (BCE) cells. The experiment in a line: chemotaxis assay of synthetic peptides (Table 2). It is filed as cell-based. Conditions: for Inhibition of chemotaxis: 100 ng/ml peptide, FGF-2 10 ng/ml, BCE cells, 5 h; for inhibition of chemotaxis, stated in words: chemotaxis assay of table 2. On the procedure:
Synthetic peptides were produced by Multiple Peptide Systems, San Diego Calif., USA, and dissolved in 1 mM ZnCl2/0.5xPBS at a stock concentration of 1 mg/ml. The sequences of the peptides were as follows:
A migration assay was performed in a modified Boyden chamber as described earlier (Auerbach et al., 1991) using micropore polycarbonate filters (8 μm thick, 8 μm pore) coated with type-1 collagen solution at 100 μg/ml (Vitrogen 100, Collagen Corp). Primary bovine adrenal cortex capillary endothelial (BCE) cells were trypsinized and resuspended at a concentration of 7.5×10^5 cells/ml in Dulbecco's modified essential medium (Invitrogen) containing 0.25% BSA and Trasylol at 1000 KIE. The cell suspension was placed in the upper chamber. In the lower chamber below the filter was placed medium containing 0.25% BSA and when indicated, 10 ng/ml fibroblast growth factor (FGF-2; Peprotech). Recombinant HRGP produced in 293 cells, alternatively, synthetic peptides, all at a final concentration of 100 ng/ml (or as indicated), was placed in both chambers either alone or in combination with FGF-2. After 5 h at 37° C., the medium was removed and cells sticking to the filter were fixed in pure methanol and stained with Giemsa stain. The number of cells on the lower side of the filter was counted using an image analysis software (Easy Image Analysis) from TeknoOptik, Sweden. All samples were analyzed in series of at least six parallel wells for each treatment.

The subject of assay [2] is endothelial cells. The experiment in a line: chemotaxis of endothelial cells towards FGF-2, truncated HRGP proteins. It counts as cell-based. Conditions: recombinant truncated forms of HRGP. The procedure: (§1) A migration assay was performed in a modified Boyden chamber as described earlier (Auerbach et al., 1991) using micropore polycarbonate filters (8 μm thick, 8 μm pore) coated with type-1 collagen solution at 100 μg/ml (Vitrogen 100, Collagen Corp). BCE, PAE/FGFR-1 or NIH 3T3 cells were preincubated or not with HRGP (100 ng/ml) for 30 min, trypsinised and resuspended at a concentration of 7.5×10^5 cells/ml in Dulbecco's modified essential medium (Invitrogen) containing 0.25% BSA and Trasylol at 1000 KIE. FGF-2 and VEGF-A was used at 5 ng/ml, HRGP and the protein C inhibitor (PCI) at 100 ng/ml and BSA at 0.25%. After 5 h at 37° C., migrated cells were stained with Giemsa and counted using an image analysis software (Easy Image Analysis) from Tekno Optik AB, Sweden. All samples were analysed in at least six parallel wells for each treatment.
To determine which part of HRGP was responsible for the anti-angiogenic effect, recombinant truncated forms of the protein were produced (FIG. 5A). Truncated versions containing the C-terminal part of HRGP, but lacking an intact N-terminus, were not possible to produce, maybe due to instability.

For assay [3], the system named is primary BCE cells. The assay is described as follows: chemotaxis (migration) assay in modified Boyden chamber, BCE cells. It counts as cell-based, bovine. Conditions: 100 ng/ml protein, FGF-2 5 ng/ml, 5 h. The procedure: The porcine aortic endothelial (PAE) cell line overexpressing FGF receptor-1 (FGFR-1) (Wennström et al 1992) was cultured in Ham's F12/10% fetal bovine serum (FCS) and NIH 3T3 murine fibroblasts were cultured in Dulbecco's modified medium (DMEM)/10% newborn calf serum (NCS). F12, DMEM and serum were bought from Life Technologies. Primary bovine adrenal cortex capillary endothelial (BCE) cells were cultured on gelatin-coated dishes in DMEM/10% NCS and 2 ng/ml FGF-2 (Boehringer Mannheim). For chemotaxis assays, both PAE and NIH 3T3 cells were serum-starved over night in 0.1% BSA and BCE cells in 0.5% NCS. Human embryonic kidney (HEK) 293-EBNA cells were cultured in DMEM/10% FCS. Approximately every second month they were given 0.25 mg/ml G418 (Calbiochem) to ensure positive selection of the EBNA-1 expressing cells.
as §1

For assay [4], the system named is T241 fibrosarcoma cells. The assay is described as follows: fibrosarcoma tumour growth in mice (HRGP). It counts as in vivo. Conditions: 14 days. On the procedure:
Animal work was carried out at the local animal facility and was approved by the Uppsala University board of animal experimentation and thus performed according to the UKCCCR guidelines for the welfare of animals in experimental neoplasia (Workman et al (1988)). The mice were anesthetized with isoflurane (Forene; Abbott) during all manipulations. Female, 5 week old, C57BL6/1 mice (Mollegard/Bomhultgard, Denmark) were injected with 0.5×10^6 T241 fibrosarcoma cells subcutaneously (s.c.) into the left flank. Animals carrying palpable tumours were randomized (n=7-10 animals/treatment group) and received treatment with vehicle (PBS), 4 mg/kg/day of pHRGP or 5 mg/kg/day of human IgG or His-HRGP, given as daily subcutaneous injections in the right flank. The tumours were measured with a caliper once a day, in a blind procedure, and volumes were calculated by the formula […]. When the tumours reached the upper limit of 2 cm^3, the mice were sacrificed. Three animals in each group were perfused with 4% paraformaldehyde in PBS pH 7.4. Tumours were embedded in paraffin according to standard histological procedures and sectioned at […] thickness.
C57/bl6 mice were inoculated subcutaneously with T241 fibrosarcoma cells on their left flank and when the tumours were palpable (after 4-6 days), a daily treatment was initiated with HRGP or control (PBS; FIG. 2A, or human IgG; FIG. 2B). Endostatin was included in one study for comparison (FIG. 2B). The treatment was given as subcutaneous injections in the right flank until the size of the control tumours reached the upper limit of […] (11 days; FIG. 2A, 14 days; FIG. 2B). Injections with both pHRGP (4 mg/kg/day) and His-HRGP (5 mg/kg/day) led to a drastic reduction in tumour growth and at the time of sacrifice, the size of the tumours was reduced by 67% (FIG. 2A) and 61% (FIG. 2B) respectively, compared to control-treated animals. Endostatin treatment (25 mg/kg/day) lacked significant inhibitory effect on tumour growth in this model (32% decrease).

For the molecule AHHPHEHDTHRQHPHG [Pep 10], the Inhibition of chemotaxis entry in assay [1] is recorded as “+”.
Same read-out and setting: to KHHSHEQHPHGHHPHAHHPHEHDTHG [Pep 9A] belongs “+”.
As to DLHPHKHHSHEQHPHG [Pep 8], in assay [1], the Inhibition of chemotaxis result was “− (as compared to Pep 8 and Pep 11A)”; the “inhibition of chemotaxis, stated in words” value is given as “not to be effective”.
Turning to DLHPHEQHPHEHDTHG [Pep 11A], in assay [1], the Inhibition of chemotaxis result is “− (as compared to Pep 8 and Pep 11A)”; the “inhibition of chemotaxis, stated in words” value is given as “not to be effective”.
Regarding Ac-AHHPHEHDTHRQHPH-NH2 [Pep 12A], in assay [1], the Inhibition of chemotaxis entry is “+”.
Regarding Ac-AHHPHEHDTH-NH2 [Pep 13A], in assay [1], the Inhibition of chemotaxis result is “+”.
On the same count and under the same terms, to Ac-EHDTH-NH2 [Pep 15A] belongs “+”.

B1: His 5: recombinant His/Pro-rich domain (central region) of human HRGP (protein, listed as Homo sapiens)
chain: HLGHPFHWGGHERSSTTKPPFKPHGSRDHHHPHKPHEHGPPPPPDERDHSHGPPLPQGPPPLLPMSCSSCQHATFGTNGAQRHSHNNNSSDLHPHKHHSHEQHPHGHHPHAHHPHEHDTHRQHPHGHHPHGHHPHGHHPHGHHPHGHHPHC
In the case of B1, the “inhibition of chemotaxis of endothelial cells towards FGF-2” value in assay [2] was “inhibited chemotaxis”; in assay [2] (listed as central region (His/Pro-rich domain) of human HRGP) it was “inhibited chemotaxis as potently as the mature protein”; in assay [2] (listed as central region of human HRGP), “inhibit chemotaxis”.

B2: PCI: plasma protein of approximately the same mass as HRGP, specificity control (protein, UniProt P05154 26-406, looked up)
Plasma serine protease …: EMKKRVEDLHVGATVAPSSRRDFTFDLYRALASAAPSQSIFFSPVSISMSLAMLSLGAGSSTKMQILEGLGLNLQKSSEKELHRGFQQLLQELNQPRDGFQLSLGNALFTDLVVDLQDTFVSAMKTLYLADTFPTNFRDSAGAMKQINDYVAKQTKGKIVDLLKNLDSNAVVIMVNYIFFKAKWETSFNHKGTQEQDFYVTSETVVRVPMMSREDQYHYLLDRNLSCRVVGVPYQGNATALFILPSEGKMQQVENGLSEKTLRKWLKMFKKRQLELYLPKFSIEGSYQLEKVLPSLGISNVFTSHADLSGISNHSNIQVSEMVHKAVVEVDESGTRAAAATGTIFTFRSARLNSQRLVFNRPFLMFIVDNNILFLGKVNRP
In the case of B2, in assay [3], the “FGF-2-induced chemotaxis of BCE cells” value is “no effect”.

B3: His-HRGP: recombinant full-length HRGP produced in HEK-293-EBNA cells with a His-tag (protein)
chain: VSPTDCSAVEPEAEKALDLINKRRRDGYLFQLLRIADAHLDRVENTTVYYLVLDVQESDCSVLSRKYWNDCEPPDSRRPSEIVIGQCKVIATRHSHESQDLRVIDFNCTTSSVSSALANTKDSPVLIDFFEDTERYRKQANKALEKYKEENDDFASFRVDRIERVARVRGGEGTGYFVDFSVRNCPRHHFPRHPNVFGFCRADLFYDVEALDLESPKNLVINCEVFDPQEHENINGVPPHLGHPFHWGGHERSSTTKPPFKPHGSRDHHHPHKPHEHGPPPPPDERDHSHGPPLPQGPPPLLPMSCSSCQHATFGTNGAQRHSHNNNSSDLHPHKHHSHEQHPHGHHPHAHHPHEHDTHRQHPHGHHPHGHHPHGHHPHGHHPHGHHPHCHDFQDYGPCDPPPHNQGHCCHGHGPPPGHLRRRGPGKGPRPFHCRQIGSVYRLPPLRKGEVLPLPEANFPSFPLPHHKHPLKPDNQPFPQSVSESCPGKFKSGFPQVSMFFTHTFPK
modifications: left off: small tags and cut ends
notes: recombinant full-length HRGP produced in HEK-293-EBNA cells with a His-tag
As to B3, the “reduction of tumour size compared to control-treated animals at sacrifice” value in assay [4] (5 mg/kg/day s.c. daily, control human IgG) worked out at 61%.

B4: Endostatin: anti-angiogenic factor included in one tumour study for comparison (protein, UniProt P39060 1572-1754, looked up)
Endostatin: HSHRDFQPVLHLVALNSPLSGGMRGIRGADFQCFQQARAVGLAGTFRAFLSSRLQDLYSIVRRADRAAVPIVNLKDELLFPSWEALFSGSEGPLKPGARIFSFDGKDVLRHPTWPQKSVWHGSDPNGRRLTESYCETWRTEAPSATGQASSLLGGRLLGQSAASCHHAYIVLCIENSFMTASK
modifications: Endostatin
notes: anti-angiogenic factor included in one tumour study for comparison
With B4, the “decrease of tumour growth” value in assay [4] (25 mg/kg/day, comparison) is 32%.

B5: His 4: recombinant truncated version of HRGP that covers the complete central region (protein, listed as Homo sapiens)
chain: VSPTDCSAVEPEAEKALDLINKRRRDGYLFQLLRIADAHLDRVENTTVYYLVLDVQESDCSVLSRKYWNDCEPPDSRRPSEIVIGQCKVIATRHSHESQDLRVIDFNCTTSSVSSALANTKDSPVLIDFFEDTERYRKQANKALEKYKEENDDFASFRVDRIERVARVRGGEGTGYFVDFSVRNCPRHHFPRHPNVFGFCRADLFYDVEALDLESPKNLVINCEVFDPQEHENINGVPPHLGHPFHWGGHERSSTTKPPFKPHGSRDHHHPHKPHEHGPPPPPDERDHSHGPPLPQGPPPLLPMSCSSCQHATFGTNGAQRHSHNNNSSDLHPHKHHSHEQHPHGHHPHAHHPHEHDTHRQHPHGHHPHGHHPHGHHPHGHHPHGHHPHC
With B5, the “inhibition of chemotaxis of endothelial cells towards FGF-2” value in assay [2] is given as “did not inhibit endothelial cell chemotaxis”; in assay [2] (listed as His4) it was “failure of His4 to inhibit endothelial cell chemotaxis”.
